Test results published in patent US12617783B2, “Heterocyclic GLP-1R agonists” (BIOMEA FUSION, INC., priority 2024, dated 2026).

target: T1, human GLP-1R (Homo sapiens, UniProt P43220); experiment: GLP-1R cAMP assay (Example B1a, HTRF, 30 min at room temperature); format: cell-based; conditions: cAMP accumulation in HEK293 expressing human GLP-1R, no BETP, 30 min room temperature (Method B1a, compounds ID 1-609), Table 1; read-out: EC50
T1 construct: host or cells: HEK293
How it was run: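 Competitive HTRF read-out of cAMP after 30 min room-temperature stimulation, BETP absent, of human GLP-1R-HEK293 cells (1,000/well) in HEPES buffer with 500 μM IBMX and 0.1% BSA. Activation normalised to GLP-1(7-37) positive control. EC50 from 4-parameter non-linear regression.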

T1 sequence (P43220 24-463): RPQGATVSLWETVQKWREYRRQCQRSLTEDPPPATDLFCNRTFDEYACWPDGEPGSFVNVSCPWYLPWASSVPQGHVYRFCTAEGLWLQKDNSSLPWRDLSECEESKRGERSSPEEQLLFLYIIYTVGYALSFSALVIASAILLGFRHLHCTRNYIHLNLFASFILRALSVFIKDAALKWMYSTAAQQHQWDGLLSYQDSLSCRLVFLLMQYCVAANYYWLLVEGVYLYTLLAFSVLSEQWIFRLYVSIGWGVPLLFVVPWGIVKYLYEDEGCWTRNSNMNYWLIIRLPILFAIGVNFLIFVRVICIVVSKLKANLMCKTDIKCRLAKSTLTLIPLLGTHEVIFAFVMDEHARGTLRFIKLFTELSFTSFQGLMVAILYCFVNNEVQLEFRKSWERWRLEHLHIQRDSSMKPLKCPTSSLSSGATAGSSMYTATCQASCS

Structure (SMILES) | EC50 [nM]
Cc1cc(-n2nc3c(c2-n2ccn(-c4ccc5cnncc5c4)c2=O)[C@@H]2CC[C@H](C3)N2C(=O)c2cc3cc([C@H]4CCOC(C)(C)C4)ccc3n2[C@@]2(c3noc(=O)[nH]3)C[C@@H]2C)cc(C)c1F [Compound 127, 3-((1S,2S)-1-(5-((S)-2,2-dimethyltetrahydro-2H-pyran-4-yl)-2-((4S,7R)-2-(4-fluoro-3,5-dimethylphenyl)-3-(2-oxo-3-(phthalazin-6-yl)-2,3-dihydro-1H-imidazol-1-yl)-2,4,5,6,7,8-hexahydro-4,7-epiminocyclohepta [c]pyrazole-9-carbonyl)-1H-indol-1-yl)-2-methylcyclopropyl)-1,2,4-oxadiazol-5 (4H)-one] | 381
Cc1cc(-n2nc3c(c2-n2ccn(-c4ccc5c(cnn5C)c4F)c2=O)[C@@H]2CC[C@H](C3)N2C(=O)c2cc3cc([C@@H]4CCOC5(CCC5)C4)ccc3n2[C@@]2(c3noc(=O)[nH]3)C[C@@H]2C)cc(C)c1F [Compound 424, 3-((1S,2S)-1-(2-((4S,7R)-3-(3-(4-fluoro-1-methyl-1H-indazol-5-yl)-2-oxo-2,3-dihydro-1H-imidazol-1-yl)-2-(4-fluoro-3,5-dimethylphenyl)-2,4,5,6,7,8-hexahydro-4,7-epiminocyclohepta [c]pyrazole-9-carbonyl)-5-((R)-5-oxaspiro[3.5]nonan-8-yl)-1H-indol-1-yl)-2-methylcyclopropyl)-1,2,4-oxadiazol-5(4H)-one] | ≥ 10000
Cc1cc(-n2nc3c(c2-c2ncn(-c4ccc5c(cnn5C)c4F)c2C)[C@H](C)N(C(=O)c2cc4cc(N5C6CCC5COC6)ccc4n2C2(c4noc(=O)[nH]4)CC2)CC3)cc(C)c1F [Compound 107, 3-[1-[2-[(4S)-2-(4-fluoro-3,5-dimethyl-phenyl)-3-[1-(4-fluoro-1-methyl-indazol-5-yl)-5-methyl-imidazol-4-yl]-4-methyl-6,7-dihydro-4H-pyrazolo[4,3-c]pyridine-5-carbonyl]-5-(3-oxa-8-azabicyclo[3.2.1]octan-8-yl)indol-1-yl]cyclopropyl]-4H-1,2,4-oxadiazol-5-one] | > 10000
COc1ccc(-n2ccn(-c3c4c(nn3-c3cc(C)c(F)c(C)c3)C[C@H]3CC[C@@H]4N3C(=O)c3cc4cc([C@H]5CCOC(C)(C)C5)ccc4n3[C@@]3(c4noc(=O)[nH]4)C[C@@H]3C)c2=O)cc1 [Compound 223, 3-[(1S,2S)-1-[5-[(4S)-2,2-dimethyltetrahydropyran-4-yl]-2-[(1S,8R)-4-(4-fluoro-3,5-dimethyl-phenyl)-3-[3-(4-methoxyphenyl)-2-oxo-imidazol-1-yl]-4,5,11-triazatricyclo[6.2.1.02,6]undeca-2,5-diene-11-carbonyl]indol-1-yl]-2-methyl-cyclopropyl]-4H-1,2,4-oxadiazol-5-one] | 259
Cc1cc(-n2nc3c(c2-n2ccn(-c4ccc5c(cnn5C)c4F)c2=O)[C@@H]2COC[C@H](C3)N2C(=O)c2cc3cc([C@H]4CCOC(C)(C)C4)ncc3n2[C@@]2(c3noc(=O)[nH]3)C[C@@H]2C)cc(C)c1F [Compound 225, 3-((1S,2S)-1-(5-((S)-2,2-dimethyltetrahydro-2H-pyran-4-yl)-2-((4R,8S)-3-(3-(4-fluoro-1-methyl-1H-indazol-5-yl)-2-oxo-2,3-dihydro-1H-imidazol-1-yl)-2-(4-fluoro-3,5-dimethylphenyl)-2,4,5,7,8,9-hexahydro-4,8-epiminooxocino [5,4-c]pyrazole-10-carbonyl)-1H-pyrrolo[2,3-c]pyridin-1-yl)-2-methylcyclopropyl)-1,2,4-oxadiazol-5 (4H)-one] | 34.1
